Values of other authors, collected in US12201667B2, “Formulations for treating cramps and spasms” (LYTONE ENTERPRISE, INC., priority 2020, dated 2025).

Details: background statement

Question: With `C=C[C@H]1C[N@@]2CC[C@H]1C[C@H]2[C@H](O)c1ccnc2ccc(OC)cc12` [quinine, Quinine] as the compound, how does the “reduction of cramp frequency” value read?
Answer: about a quarter
